Measured values: US9889176B2, “Treating renal and liver dysfunction with TLR4 antagonists” (YAQRIT LIMITED, priority 2010, dated 2018)

Tests used:
BDL rats = assay: Brain TLR4 expression, brain water and survival in BDL rats with or without LPS; assay type: in vivo; conditions: for brain TLR4 immunohistochemistry: FIG. 23
Source text: (§1) These experiments utilised an established animal model of cirrhosis, the bile duct ligated (BDL) rat. BDL rats may be generated by methods known in the art. For example, male Sprague-Dawley rats (200-250 g) may be used for this procedure. Following anaesthetisation, a mid-line laparotamy may be performed, the bile duct exposed, triply ligated with 4.0 silk suture, and severed between the second and third ligature. The wound is then closed in layers with absorbable suture, and the animal allowed to recover in a quiet room before being returned to the animal storage facility. 6 groups of Sprague-Dawley rats were studied: n=6 in each group. […] Experiments were carried out using Sham treated and BDL rats as described above.

[1] = tested on: bile duct ligated (BDL) rat; assay: Bile duct ligated (BDL) rat model of cirrhosis with or without LPS: renal dysfunction, selective gut decontamination; assay type: in vivo, Sprague-Dawley rats; conditions: for kidney TLR4 protein expression (Western Blot) / plasma creatinine: Norfloxacin 20 mg/kg orally for 10 days; for kidney TLR4 protein expression (Western Blot): FIG. 9; for NFkBp65 expression in Kidney: FIG. 10; for plasma creatinine: FIG. 8
Source text: as §1, with “The aims of this study was to determine (1) Whether cirrhosis is associated with an upregulation of TLR4, NFkB and proinflammatory cytokines in kidney. […] Biochemistry: Functional aspect of Kidneys was assessed by measuring plasma creatinine. Protein expression of TLR4 and NFkBp65 was assessed using a commonly used Western Blot technique. Localisation of TLR4 and Caspase (effector protein leading to cell death) was done by Immunohistochemistry. Cytokines” for “Experiments”, “quantified” for “carried out”, “the ELISA bead array.” for “Sham treated and BDL rats as described above.”

[2] = BDL and BDL+LPS groups, FIG. 13

CCn1cc(C(=O)O)c(=O)c2cc(F)c(N3CCNCC3)cc21 [Norfloxacin]
brain TLR4 immunohistochemistry (BDL rats; BDL animals treated with LPS): could be prevented
brain TLR4 immunohistochemistry (BDL rats; BDL animals): could be prevented
brain TLR4 protein expression (BDL rats; increase in BDL and BDL+LPS rats, FIG. 22): could be prevented
brain swelling measured by brain water (BDL rats; increase in BDL and BDL+LPS rats, FIG. 24): could be prevented
kidney TNFα ([1]; BDL and BDL+LPS groups, FIG. 11): prevented the rise
Kidney IL6 (local IL6 production) ([1]; BDL and BDL+LPS groups, FIG. 12): no effect
plasma IL6 (systemic proinflammatory cytokine) [1, 2]: reducing the secretion of cytokines
plasma TNFα (systemic proinflammatory cytokine) [1, 2]: reducing the secretion of cytokines
kidney caspase 3 (cell death), immunohistochemistry ([1]; BDL and BDL+LPS groups, FIG. 16): reduction in the caspase positivity
kidney TLR4 protein expression (Western Blot) ([1]; BDL group administered LPS, p=0.02): reduced
NFkBp65 expression in Kidney ([1]; BDL rats administered LPS, p=0.01): attenuated
plasma creatinine ([1]; BDL rats, p=0.02): reduction
kidney TLR4 protein expression (Western Blot) ([1]; BDL rats, p=0.02): reduced
NFkBp65 expression in Kidney ([1]; BDL rats, p=0.02): attenuated
renal failure induced by LPS ([1]; BDL rats, selective gut decontamination): prevents renal failure
plasma creatinine ([1]; BDL+LPS rats, p=0.03): reduction
